Columns and labels:
Test in all cases: relative viability (nuclei count vs DMSO), 5 days (fraction); higher = more cells survive
[1] = compound: CN[C@@H]1C[C@H]2O[C@@](C)([C@@H]1OC)n1c3ccccc3c3c4c(c5c6ccccc6n2c5c31)C(=O)NC4 [Staurosporine] + CC(=O)Nc1cccc(-n2c(=O)n(C3CC3)c(=O)c3c(Nc4ccc(I)cc4F)n(C)c(=O)c(C)c32)c1 [Trametinib] (partner 0.02 µM)
Method in brief: (§1)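 Lung cancer cell lines, seeded in 1536-well plates, were treated the following day by pin tool with a single drug or with five library-drug doses (not always all listed) in √10 steps on top of a fixed anchor-drug dose. Cells were fixed and nuclei stained in one step after 5 days, and nuclei were counted. Relative viability is the nuclei count for treated wells divided by that for vehicle wells, reported as medians of duplicate plates.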

[2] = compound: CC1=C(CC(=O)O)c2cc(F)ccc2/C1=C\c1ccc([S+](C)[O-])cc1 [Sulindac] + CC1(C)CCC(c2ccc(Cl)cc2)=C(CN2CCN(c3ccc(C(=O)NS(=O)(=O)c4ccc(N[C@H](CCN5CCOCC5)CSc5ccccc5)c(S(=O)(=O)C(F)(F)F)c4)cc3)CC2)C1 [Navitoclax] (partner 0.5 µM)
Method in brief: as §1

[3] = compound: CC1=C(CC(=O)O)c2cc(F)ccc2/C1=C\c1ccc([S+](C)[O-])cc1 [Sulindac] + N=C(N)NC(=N)NCCc1ccccc1 [Phenformin] (partner 250 µM)
Method in brief: as §1

[4] = compound: CN[C@@H]1C[C@H]2O[C@@](C)([C@@H]1OC)n1c3ccccc3c3c4c(c5c6ccccc6n2c5c31)C(=O)NC4 [Staurosporine] + CCNC(=O)c1noc(-c2cc(C(C)C)c(O)cc2O)c1-c1ccc(CN2CCOCC2)cc1 [Luminespib] (partner 0.01 µM)
Method in brief: as §1

Row | Cell Line | relative viability ([1]; first compound 0.005 µM) | relative viability ([1]; first compound 0.05 µM) | relative viability ([1]; first compound 0.1581 µM) | relative viability ([1]; first compound 0.5 µM) | relative viability ([2]; first compound 0.08 µM) | relative viability ([2]; first compound 0.253 µM) | relative viability ([2]; first compound 0.8 µM) | relative viability ([2]; first compound 2.53 µM) | relative viability ([2]; first compound 8 µM) | relative viability ([3]; first compound 0.08 µM) | relative viability ([3]; first compound 0.253 µM) | relative viability ([3]; first compound 0.8 µM) | relative viability ([3]; first compound 2.53 µM) | relative viability ([3]; first compound 8 µM) | relative viability ([4]; first compound 0.005 µM) | relative viability ([4]; first compound 0.05 µM) | relative viability ([4]; first compound 0.1581 µM) | relative viability ([4]; first compound 0.5 µM) | relative viability ([4]; first compound 0.01581 µM) | relative viability ([1]; first compound 0.01581 µM)
1 | NCI-H1793 | 0.472 | 0.359 | 0.168 | 0.169 | 0.341 | 0.396 | 0.364 | 0.458 | 0.473 | 0.404 | 0.396 | 0.272 | 0.372 | 0.333 | 0.252 | 0.188 | 0.131 | 0.13 |  | 
2 | NCI-H1623 |  |  |  |  |  |  |  |  |  | 0.561 | 0.595 | 0.663 | 0.632 | 0.6 | 0.55 | 0.401 | 0.419 | 0.296 | 0.531 | 
3 | NCI-H2023 | 0.257 | 0.145 | 0.0801 | 0.0607 | 1.37 | 0.987 | 0.987 | 0.977 | 1.24 | 0.423 | 0.498 | 0.325 | 0.419 | 0.571 | 0.343 | 0.109 | 0.088 | 0.045 | 0.228 | 0.17
4 | ABC-1 |  |  |  |  |  |  |  |  |  | 0.23 | 0.214 | 0.209 | 0.255 | 0.226 | 0.261 | 0.147 | 0.156 | 0.0847 | 0.274 | 
5 | IA-LM |  |  |  |  | 0.696 | 0.863 |  | 0.81 | 0.79 |  |  |  |  |  |  |  |  |  |  | 
6 | NCI-H441 | 0.373 | 0.168 | 0.133 | 0.0933 | 0.395 | 0.588 | 0.519 | 0.478 | 0.822 | 0.992 | 1.03 | 0.456 | 0.808 | 0.958 | 0.36 | 0.195 | 0.231 | 0.148 | 0.216 | 0.186
7 | NCI-H1915 | 0.252 | 0.0978 | 0.0599 | 0.0612 | 0.873 | 0.808 | 0.78 | 0.742 | 0.832 | 0.445 | 0.389 |  | 0.378 | 0.382 | 0.824 | 0.207 | 0.105 | 0.0895 | 0.247 | 0.139
8 | LXF-289 | 0.741 | 0.412 | 0.274 | 0.237 | 1 | 0.97 | 0.953 | 0.999 | 0.965 | 0.551 | 0.559 | 0.491 | 0.517 | 0.559 | 0.584 | 0.246 | 0.0904 | 0.0899 | 0.13 | 0.409
9 | NCI-H522 | 0.667 | 0.627 | 0.623 | 0.59 |  |  |  |  |  | 0.709 | 0.715 | 0.689 | 0.688 | 0.674 | 1.2 | 0.719 | 0.758 | 0.751 | 1.14 | 0.775
10 | NCI-H1299 |  |  |  |  | 1.11 | 1.05 | 1.02 | 1.05 | 1.05 |  |  |  |  |  |  |  |  |  |  | 
11 | NCI-H1563 |  |  |  |  |  |  |  |  |  | 0.647 | 0.626 | 0.608 | 0.694 | 0.677 | 0.54 | 0.504 | 0.446 | 0.408 | 0.481 | 
12 | NCI-H650 | 1.07 | 0.27 | 0.222 | 0.151 |  |  |  |  |  | 0.448 | 0.466 | 0.389 | 0.471 | 0.502 | 0.474 | 0.235 | 0.11 | 0.092 | 0.248 | 0.383
13 | Calu-6 |  |  |  |  | 1.1 | 1.04 | 0.627 | 0.756 | 1.21 |  |  |  |  |  |  |  |  |  |  | 
14 | NCI-H661 | 0.522 | 0.29 | 0.248 | 0.137 |  |  |  |  |  | 0.244 | 0.258 | 0.28 | 0.246 | 0.277 | 0.986 | 0.604 | 0.436 | 0.211 | 0.707 | 0.336
15 | EBC-1 |  |  |  |  | 0.377 | 0.387 | 0.36 | 0.344 | 0.431 |  |  |  |  |  |  |  |  |  |  | 
16 | NCI-H1648 | 0.586 | 0.0693 | 0.25 | 0.265 |  |  |  |  |  |  |  |  |  |  |  |  |  |  |  | 0.299
17 | NCI-H1703 |  |  |  |  | 1.14 | 0.978 | 0.877 | 1.1 | 1.45 |  |  |  |  |  |  |  |  |  |  | 
18 | SW 900 | 0.494 | 0.444 | 0.128 | 0.164 |  |  |  |  |  |  | 0.723 |  | 0.563 | 0.606 | 0.164 | 0.134 | 0.14 | 0.161 | 0.149 | 0.366
19 | NCI-H2342 | 0.948 | 0.499 | 0.417 | 0.363 |  |  |  |  |  | 0.647 | 0.594 | 0.475 | 0.546 | 0.625 | 0.843 | 0.49 | 0.47 | 0.334 | 0.69 | 0.675
20 | A549 |  |  |  |  | 1.63 | 1.29 |  | 1.21 | 1.46 | 0.109 | 0.154 | 0.95 | 0.232 | 0.244 |  |  |  |  |  | 
21 | LCLC-103H | 0.685 | 0.445 | 0.331 | 0.332 |  |  |  |  |  | 0.361 | 0.318 | 0.286 | 0.315 | 0.323 | 0.8 | 0.157 | 0.18 | 0.177 | 0.369 | 0.472
22 | HCC-78 | 0.806 | 0.484 | 0.407 | 0.428 | 0.784 | 0.716 | 0.711 | 0.71 | 0.77 | 0.792 | 0.689 | 0.614 | 0.763 | 0.738 |  |  |  |  |  | 0.676

Reference: the supplement of paper PMC10307832
